Results from the NIST ThermoML archive (doi:10.1016/j.tca.2014.11.009).
Numbers after ± are expanded uncertainties.

Legend:
[1] = 100 kPa, Liquid; for speed of sound: Frequency=3 MHz, Sing-around technique in a fixed-path interferometer; for mass density: Vibrating tube method
[2] = xn = mol fraction of the nth substance listed; details: 100 kPa, Liquid, x2 = 0; for speed of sound: Frequency=3 MHz, Sing-around technique in a fixed-path interferometer; for mass density: Vibrating tube method

| Structure (SMILES) | speed of sound ([1]; 283.15 K) [m/s] | mass density ([1]; 283.15 K) [kg/m3] | speed of sound ([1]; 293.15 K) [m/s] | mass density ([1]; 293.15 K) [kg/m3] | speed of sound ([1]; 303.15 K) [m/s] | mass density ([1]; 303.15 K) [kg/m3] | speed of sound ([1]; 313.15 K) [m/s] | mass density ([1]; 313.15 K) [kg/m3] | speed of sound ([2]; 283.15 K) [m/s] | mass density ([2]; 283.15 K) [kg/m3] | speed of sound ([2]; 293.15 K) [m/s] | mass density ([2]; 293.15 K) [kg/m3] | speed of sound ([2]; 303.15 K) [m/s] | mass density ([2]; 303.15 K) [kg/m3] | speed of sound ([2]; 313.15 K) [m/s] | mass density ([2]; 313.15 K) [kg/m3] |
| --- | --- | --- | --- | --- | --- | --- | --- | --- | --- | --- | --- | --- | --- | --- | --- | --- |
| O=Cc1ccco1 [2-furaldehyde] | 1495.4 ± 1.6 | 1169.93 ± 0.37 | 1458.8 ± 1.6 | 1159.33 ± 0.36 | 1422.5 ± 1.6 | 1148.69 ± 0.35 | 1386.5 ± 1.6 | 1138.01 ± 0.34 |  |  |  |  |  |  |  |  |
| CCCCO [butan-1-ol] | 1291.4 ± 1.6 | 817.21 ± 0.24 | 1257.5 ± 1.6 | 809.65 ± 0.24 | 1223.6 ± 1.6 | 802 ± 0.24 | 1190.2 ± 1.6 | 794.21 ± 0.24 |  |  |  |  |  |  |  |  |
| CCCCO [butan-1-ol] + O=Cc1ccco1 |  |  |  |  |  |  |  |  | 1291.4 ± 1.6 | 817.21 ± 0.24 | 1257.5 ± 1.6 | 809.65 ± 0.24 | 1223.6 ± 1.6 | 802 ± 0.24 | 1190.2 ± 1.6 | 794.21 ± 0.24 |
| CCC(C)O (stereo unspecified) [butan-2-ol] | 1268.4 ± 1.6 | 815.39 ± 0.24 | 1232.4 ± 1.6 | 807.34 ± 0.24 | 1196.1 ± 1.6 | 798.99 ± 0.24 | 1159.5 ± 1.6 | 790.28 ± 0.24 |  |  |  |  |  |  |  |  |
| CCC(C)O (stereo unspecified) [butan-2-ol] + O=Cc1ccco1 |  |  |  |  |  |  |  |  | 1268.4 ± 1.6 | 815.39 ± 0.24 | 1232.4 ± 1.6 | 807.34 ± 0.24 | 1196.1 ± 1.6 | 798.99 ± 0.24 | 1159.5 ± 1.6 | 790.28 ± 0.24 |
| CCO [ethanol] | 1197.3 ± 1.6 | 798.51 ± 0.24 | 1162.5 ± 1.6 | 789.99 ± 0.24 | 1128.3 ± 1.6 | 781.38 ± 0.24 | 1094.6 ± 1.6 | 772.64 ± 0.24 |  |  |  |  |  |  |  |  |
| CCO [ethanol] + O=Cc1ccco1 |  |  |  |  |  |  |  |  | 1197.3 ± 1.6 | 798.51 ± 0.24 | 1162.5 ± 1.6 | 789.99 ± 0.24 | 1128.3 ± 1.6 | 781.38 ± 0.24 | 1094.6 ± 1.6 | 772.64 ± 0.24 |
